From BindingDB's records for PubMed 8301582 (Neuroscience Research Centre, 1994)

molecular target: D(3) dopamine receptor (Homo sapiens, UniProt P35462)
Sequence (P35462 as listed by the source): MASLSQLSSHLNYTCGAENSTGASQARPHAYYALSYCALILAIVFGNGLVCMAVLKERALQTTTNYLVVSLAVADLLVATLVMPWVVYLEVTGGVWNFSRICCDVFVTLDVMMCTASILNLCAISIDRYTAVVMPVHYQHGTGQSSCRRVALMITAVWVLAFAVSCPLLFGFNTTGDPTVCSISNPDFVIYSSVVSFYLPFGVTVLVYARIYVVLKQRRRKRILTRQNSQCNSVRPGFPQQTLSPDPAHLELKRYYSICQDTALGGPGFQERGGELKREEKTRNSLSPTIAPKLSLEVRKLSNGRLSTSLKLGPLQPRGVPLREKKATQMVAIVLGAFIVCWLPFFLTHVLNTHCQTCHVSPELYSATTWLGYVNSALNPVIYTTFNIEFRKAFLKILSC

Compound	Ki [nM]
CCCN(CCC)C1CCc2cc(O)c(O)cc2C1 (racemic) [CAS_62421-17-4]	0.68
COc1ccc2c(c1O)-c1c3c(cc4c1[C@H](C2)N(C)CC4)OCO3 [(S)-11-methoxy-7-methyl-6,7,7a,8-tetrahydro-5H-benzo[g][1,3]dioxolo[4',5':4,5]benzo[1,2,3-de]quinolin-12-ol]	5200
Cc1cc2c(cc1C)CC(N)CC2 (configuration not stated) [ADTN DIMETHYL 5,6]	17
CC(C)C[C@H]1C(=O)N2CCC[C@H]2[C@]2(O)O[C@](NC(=O)[C@@H]3C=C4c5cccc6[nH]c(Br)c(c56)C[C@H]4N(C)C3)(C(C)C)C(=O)N12 [Bromocriptine+ (GTP+)]	2.1
CCCN1CCc2cc(F)cc3c2C1Cc1ccc(O)c(O)c1-3 (configuration not stated) [CAS_18426-20-5]	0.21
NC1CCc2cc(OC(=O)c3ccccc3)c(OC(=O)c3ccccc3)cc2C1 (configuration not stated) [CAS_129816]	160
CCCN(CCC)C1C=Cc2c(OC)cccc2C1C (configuration not stated) [CAS_5311190]	4.9
